Results as given in ChEMBL document CHEMBL1149774, “Synthesis of N-(5,7-diamino-3-phenyl-quinoxalin-2-yl)-3,4,5-substituted anilines and N-[4[(5,7-diamino-3-phenylquinoxalin-2-yl)amino]benzoyl]-l-glutamic acid diethyl ester: evaluation of in vitro anti-cancer and anti-folate activities” (Eur J Med Chem, 2008).

How the values were obtained:
Type in all cases: functional
KM12 = assay: Growth inhibition of human KM12 cells after 48 hrs by SRB staining method; details: KM12, 48 h
UACC-62 = assay: Growth inhibition of human UACC62 cells after 48 hrs by SRB staining method; details: UACC-62, 48 h
TK-10 = assay: Growth inhibition of human TK10 cells after 48 hrs by SRB staining method; details: TK-10, 48 h
RXF 393 = assay: Growth inhibition of human RXF393 cells after 48 hrs by SRB staining method; details: RXF 393, 48 h
NCI-H522 = assay: Growth inhibition of human NCI-H522 cells after 48 hrs by SRB staining method; details: NCI-H522, 48 h
MDA-MB-231 = assay: Growth inhibition of human MDA-MB-231 cells after 48 hrs by SRB staining method; details: MDA-MB-231, 48 h
A498 = assay: Growth inhibition of human A498 cells after 48 hrs by SRB staining method; details: A498, 48 h
A549 = assay: Growth inhibition of human A549 cells after 48 hrs by SRB staining method; details: A549, 48 h
SN12C = assay: Growth inhibition of human SN12C cells after 48 hrs by SRB staining method
SF-268 = assay: Growth inhibition of human SF268 cells after 48 hrs by SRB staining method; details: SF-268, 48 h
OVCAR-5 = assay: Growth inhibition of human OVCAR5 cells after 48 hrs by SRB staining method; details: OVCAR-5, 48 h
ACHN = assay: Growth inhibition of human ACHN cells after 48 hrs by SRB staining method
NCI/ADR-RES = assay: Growth inhibition of human NCI/ADR-RES cells after 48 hrs by SRB staining method
MDA-MB-435 = assay: Growth inhibition of human MDA-MB-435 cells after 48 hrs by SRB staining method; details: MDA-MB-435, 48 h
NCI-H23 = assay: Growth inhibition of human NCI-H23 cells after 48 hrs by SRB staining method; details: NCI-H23, 48 h
OVCAR-8 = assay: Growth inhibition of human OVCAR8 cells after 48 hrs by SRB staining method; details: OVCAR-8, 48 h
SK-MEL-28 = assay: Growth inhibition of human SK-MEL-28 cells after 48 hrs by SRB staining method; details: SK-MEL-28, 48 h
RPMI-8226 = assay: Growth inhibition of human RPMI8226 cells after 48 hrs by SRB staining method; details: RPMI-8226, 48 h
HOP-62 = assay: Growth inhibition of human HOP62 cells after 48 hrs by SRB staining method; details: HOP-62, 48 h
Malme-3M = assay: Growth inhibition of human MALME-3M cells after 48 hrs by SRB staining method
OVCAR-4 = assay: Growth inhibition of human OVCAR4 cells after 48 hrs by SRB staining method; details: OVCAR-4, 48 h
MCF7 = assay: Growth inhibition of human MCF7 cells after 48 hrs by SRB staining method; details: MCF7, 48 h
M14 = assay: Growth inhibition of human M14 cells after 48 hrs by SRB staining method; details: M14, 48 h
NCI-H322M = assay: Growth inhibition of human NCI-H322M cells after 48 hrs by SRB staining method
PC-3 = assay: Growth inhibition of human PC3 cells after 48 hrs by SRB staining method; details: PC-3, 48 h
CAKI-1 = assay: Growth inhibition of human CAKI1 cells after 48 hrs by SRB staining method; details: CAKI-1, 48 h
UO-31 = assay: Growth inhibition of human UO31 cells after 48 hrs by SRB staining method; details: UO-31, 48 h
SK-MEL-5 = assay: Growth inhibition of human SK-MEL-5 cells after 48 hrs by SRB staining method; details: SK-MEL-5, 48 h
HCT-116 = assay: Growth inhibition of human HCT116 cells after 48 hrs by SRB staining method; details: HCT-116, 48 h
OVCAR-3 = assay: Growth inhibition of human OVCAR-3 cells after 48 hrs by SRB staining method; details: OVCAR-3, 48 h
SNB-19 = assay: Growth inhibition of human SNB19 cells after 48 hrs by SRB staining method; details: SNB-19, 48 h
[1] = read-out: pLC50 (the source's name) (converted)

Q: What does the source list for `COc1cc(Nc2nc3cc(N)cc(N)c3nc2-c2ccccc2)cc(OC)c1OC`?
A: GI50 (KM12): 10.7 µM; LC50 (KM12): 81.3 µM; TGI (KM12; read-out: pTGI (converted)): 29.5 µM; GI50 (UACC-62): 13.5 µM; LC50 (UACC-62): 74.1 µM; TGI (UACC-62; read-out: pTGI (converted)): 31.6 µM; GI50 (TK-10): 24 µM; CC50 (TK-10; [1]): > 100 µM; TGI (TK-10; read-out: pTGI (converted)): 66.1 µM; GI50 (RXF 393): 14.5 µM; CC50 (RXF 393; [1]): 83.2 µM; TGI (RXF 393; read-out: pTGI (converted)): 34.7 µM; GI50 (NCI-H522): 18.2 µM; LC50 (NCI-H522): > 100 µM; TGI (NCI-H522; read-out: pTGI (converted)): 53.7 µM; GI50 (MDA-MB-231): 11.2 µM; CC50 (MDA-MB-231; [1]): 77.6 µM; TGI (MDA-MB-231; read-out: pTGI (converted)): 29.5 µM; GI50 (A498): 31.6 µM; CC50 (A498; [1]): > 100 µM; TGI (A498; read-out: pTGI (converted)): > 100 µM; GI50 (A549): 29.5 µM; CC50 (A549; [1]): > 100 µM; TGI (A549; read-out: pTGI (converted)): > 100 µM; GI50 (SN12C): 20.4 µM; CC50 (SN12C; [1]): > 100 µM; TGI (SN12C; read-out: pTGI (converted)): 83.2 µM; GI50 (SF-268): 18.2 µM; CC50 (SF-268; [1]): > 100 µM; TGI (SF-268; read-out: pTGI (converted)): 60.3 µM; GI50 (OVCAR-5): 21.4 µM; LC50 (OVCAR-5): > 100 µM; TGI (OVCAR-5; read-out: pTGI (converted)): 46.8 µM; GI50 (ACHN): 16.6 µM; CC50 (ACHN; [1]): > 100 µM; TGI (ACHN; read-out: pTGI (converted)): 42.7 µM; GI50 (NCI/ADR-RES): 14.5 µM; CC50 (NCI/ADR-RES; [1]): > 100 µM; TGI (NCI/ADR-RES; read-out: pTGI (converted)): 43.7 µM; GI50 (MDA-MB-435): 7.41 µM; CC50 (MDA-MB-435; [1]): 69.2 µM; TGI (MDA-MB-435; read-out: pTGI (converted)): 24.5 µM; GI50 (NCI-H23): 25.1 µM; LC50 (NCI-H23): > 100 µM; TGI (NCI-H23; read-out: pTGI (converted)): 75.9 µM; GI50 (OVCAR-8): 15.5 µM; CC50 (OVCAR-8; [1]): 79.4 µM; TGI (OVCAR-8; read-out: pTGI (converted)): 34.7 µM; GI50 (SK-MEL-28): 1.45 µM; CC50 (SK-MEL-28; [1]): 63.1 µM; TGI (SK-MEL-28; read-out: pTGI (converted)): 20.9 µM; GI50 (RPMI-8226): 12.3 µM; CC50 (RPMI-8226; [1]): 85.1 µM; TGI (RPMI-8226; read-out: pTGI (converted)): 32.4 µM; GI50 (HOP-62): 16.2 µM; LC50 (HOP-62): 72.4 µM; TGI (HOP-62; read-out: pTGI (converted)): 34.7 µM; GI50 (Malme-3M): 12.9 µM; LC50 (Malme-3M): 61.7 µM; TGI (Malme-3M; read-out: pTGI (converted)): 28.2 µM; GI50 (OVCAR-4): 0.0316 µM; LC50 (OVCAR-4): 25.7 µM; TGI (OVCAR-4; read-out: pTGI (converted)): 0.891 µM; GI50 (MCF7): 25.7 µM; CC50 (MCF7; [1]): > 100 µM; TGI (MCF7; read-out: pTGI (converted)): 95.5 µM; GI50 (M14): 19.5 µM; LC50 (M14): > 100 µM; TGI (M14; read-out: pTGI (converted)): 44.7 µM; LC50 (NCI-H322M): > 100 µM; GI50 (PC-3): 14.1 µM; CC50 (PC-3; [1]): > 100 µM; TGI (PC-3; read-out: pTGI (converted)): 58.9 µM; GI50 (CAKI-1): 15.5 µM; CC50 (CAKI-1; [1]): > 100 µM; TGI (CAKI-1; read-out: pTGI (converted)): 49 µM; GI50 (UO-31): 15.1 µM; CC50 (UO-31; [1]): > 100 µM; TGI (UO-31; read-out: pTGI (converted)): 91.2 µM; GI50 (SK-MEL-5): 12.9 µM; LC50 (SK-MEL-5): 58.9 µM; TGI (SK-MEL-5; read-out: pTGI (converted)): 27.5 µM; GI50 (HCT-116): 15.5 µM; LC50 (HCT-116): 75.9 µM; TGI (HCT-116; read-out: pTGI (converted)): 33.9 µM; GI50 (OVCAR-3): 14.1 µM; LC50 (OVCAR-3): 97.7 µM; TGI (OVCAR-3; read-out: pTGI (converted)): 37.2 µM; GI50 (SNB-19): 33.1 µM; LC50 (SNB-19): > 100 µM; TGI (SNB-19; read-out: pTGI (converted)): > 100 µM
